Values joined by “and” are separate entries in the source; they are usually repeats but may differ in a detail not shown here. Identical values can stand only once. Inconclusive results and toxic doses are left out.
Tested on: CD2F1 mice, L1210 leukemia ip, survival T/C
Experiment: NCI In Vivo Anticancer Drug Screen. Data for tumor model L1210 Leukemia (intraperitoneal) in CD2F1 (CDF1) mice
Conditions: higher = longer survival
Outline: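 Ratio T/C, where T is the treated-group value and C the vehicle-dosed control value, from mice implanted with a transplantable tumor.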

[1] = endpoint: mean survival time, dose: 100.0 mg/kg/injection, schedule: Q04DX003 (ip), vehicle: saline with Tween-80
[2] = endpoint: mean survival time, dose: 200.0 mg/kg/injection, schedule: Q04DX003 (ip), vehicle: saline with Tween-80
[3] = endpoint: mean survival time, dose: 400.0 mg/kg/injection, schedule: Q04DX003 (ip), vehicle: saline with Tween-80
[4] = endpoint: mean survival time, dose: 100.0 mg/kg/injection, schedule: Q01DX009 (ip), vehicle: saline with Tween-80
[5] = endpoint: mean survival time, dose: 200.0 mg/kg/injection, schedule: Q01DX009 (ip), vehicle: saline with Tween-80
[6] = endpoint: mean survival time, dose: 100.0 mg/kg/injection, schedule: Q01DX001 (ip), vehicle: saline with Tween-80
[7] = endpoint: mean survival time, dose: 200.0 mg/kg/injection, schedule: Q01DX001 (ip), vehicle: saline with Tween-80
[8] = endpoint: mean survival time, dose: 400.0 mg/kg/injection, schedule: Q01DX001 (ip), vehicle: saline with Tween-80
[9] = endpoint: mean survival time, dose: 50.0 mg/kg/injection, schedule: Q01DX009 (ip), vehicle: saline with Tween-80
[10] = endpoint: mean survival time, dose: 25.0 mg/kg/injection, schedule: Q01DX009 (ip), vehicle: saline with Tween-80
[11] = endpoint: mean survival time, dose: 50.0 mg/kg/injection, schedule: Q04DX003 (ip), vehicle: saline with Tween-80

With c1coc(CNc2ncnc3c2ncn3CCCCCCn2cnc3c(NCc4ccco4)ncnc32)c1 the T/C (endpoint: mean survival time, dose: 1.0 mg/kg/injection, schedule: Q01DX005 (ip), vehicle: other) was 95 % of control, the T/C (endpoint: mean survival time, dose: 2.0 mg/kg/injection, schedule: Q01DX005 (ip), vehicle: other) was 92 % of control and the T/C (endpoint: mean survival time, dose: 4.0 mg/kg/injection, schedule: Q01DX005 (ip), vehicle: other) was 95 % of control. For the same compound, the T/C (endpoint: mean survival time, dose: 16.0 mg/kg/injection, schedule: Q01DX005 (ip), vehicle: other) was 95 % of control.

COc1cnnc2ccccc12 was tested, and the T/C [1] was 104 % of control, the T/C [2] was 103 % of control and the T/C [3] was 92 % of control.

With OC(c1ccccc1)(c1ccccc1)c1ccccc1 the T/C [1] was 101 % of control, the T/C [2] was 98 % of control and the T/C [3] was 98 % of control.

For O=C(NCCCCC(Cl)C(=O)O)c1ccccc1 (centres undefined), the T/C [4] was 98 % of control, the T/C [5] was 100 % of control and the T/C (endpoint: mean survival time, dose: 400.0 mg/kg/injection, schedule: Q01DX009 (ip), vehicle: saline with Tween-80) was 100 % of control.

In the case of CC1C(C(=O)c2ccc(-c3ccccc3)cc2)N1c1ccccc1 (centres undefined), the T/C (endpoint: mean survival time, dose: 100.0 mg/kg/injection, schedule: Q01DX001 (ip), vehicle: Klucel (hydroxypropylcellulose) (HPC)) is reported as 94 % of control, the T/C (endpoint: mean survival time, dose: 200.0 mg/kg/injection, schedule: Q01DX001 (ip), vehicle: Klucel (hydroxypropylcellulose) (HPC)) is reported as 101 % of control and the T/C (endpoint: mean survival time, dose: 400.0 mg/kg/injection, schedule: Q01DX001 (ip), vehicle: Klucel (hydroxypropylcellulose) (HPC)) is reported as 86 % of control.

In the case of O=C(O)c1ccccc1C(=O)N1CCCCC1, the T/C (endpoint: mean survival time, dose: 12.5 mg/kg/injection, schedule: Q04DX002 (ip), vehicle: saline with Tween-80) is reported as 94 % of control, the T/C (endpoint: mean survival time, dose: 25.0 mg/kg/injection, schedule: Q04DX002 (ip), vehicle: saline with Tween-80) is reported as 90 % of control and the T/C (endpoint: mean survival time, dose: 50.0 mg/kg/injection, schedule: Q04DX002 (ip), vehicle: saline with Tween-80) is reported as 110 % of control.

In the case of CC(C)CC(NC(=O)C(CSC(c1ccccc1)(c1ccccc1)c1ccccc1)NC(c1ccccc1)(c1ccccc1)c1ccccc1)C(=O)O (centres undefined), the T/C (endpoint: mean survival time, dose: 50.0 mg/kg/injection, schedule: Q01DX009 (ip), vehicle: saline) is reported as 97 % of control, the T/C (endpoint: mean survival time, dose: 100.0 mg/kg/injection, schedule: Q01DX009 (ip), vehicle: saline) is reported as 91 % of control and the T/C (endpoint: mean survival time, dose: 200.0 mg/kg/injection, schedule: Q01DX009 (ip), vehicle: saline) is reported as 92 % of control. The T/C (endpoint: mean survival time, dose: 400.0 mg/kg/injection, schedule: Q01DX009 (ip), vehicle: saline) was 91 % of control.

With NS(=O)(=O)c1cccc(C(=O)O)c1 the T/C [6] was 98 % of control, the T/C [7] was 94 % of control and the T/C [8] was 98 % of control.

With CC(C)=NO the T/C [1] was 109 % of control and the T/C [2] was 90 % of control.

In the case of OCC1OC(n2ncc3c(Nc4ccccc4)ncnc32)C(O)C1O (centres undefined), the T/C (endpoint: mean survival time, dose: 6.25 mg/kg/injection, schedule: Q01DX005 (ip), vehicle: other) is reported as 97 % of control, the T/C (endpoint: mean survival time, dose: 12.5 mg/kg/injection, schedule: Q01DX005 (ip), vehicle: other) is reported as 91 % of control and the T/C (endpoint: mean survival time, dose: 25.0 mg/kg/injection, schedule: Q01DX005 (ip), vehicle: other) is reported as 100 % of control. For the same compound, the T/C (endpoint: mean survival time, dose: 50.0 mg/kg/injection, schedule: Q01DX005 (ip), vehicle: other) was 96 % of control, the T/C (endpoint: mean survival time, dose: 100.0 mg/kg/injection, schedule: Q01DX005 (ip), vehicle: other) was 92 % of control and the T/C (endpoint: mean survival time, dose: 200.0 mg/kg/injection, schedule: Q01DX005 (ip), vehicle: other) was 96 % of control. For the same compound, the T/C (endpoint: mean survival time, dose: 400.0 mg/kg/injection, schedule: Q01DX005 (ip), vehicle: other) was 96 % of control.

In the case of Nc1nc2c(ncn2-c2cccc(C(F)(F)F)c2)c(=O)[nH]1, the T/C [1] is reported as 94 % of control, the T/C [2] is reported as 89 % of control and the T/C [3] is reported as 92 % of control.

With CCCCC1(C(C)CC(C)(C)C)NC(C)(C)CC(C)O1 (centres undefined) the T/C (endpoint: mean survival time, dose: 25.0 mg/kg/injection, schedule: Q04DX002 (ip), vehicle: saline) was 104 % of control, the T/C (endpoint: mean survival time, dose: 50.0 mg/kg/injection, schedule: Q04DX002 (ip), vehicle: saline) was 101 % of control and the T/C (endpoint: mean survival time, dose: 100.0 mg/kg/injection, schedule: Q04DX002 (ip), vehicle: saline) was 89 % of control. For the same compound, the T/C [1] was 101 % of control.

For Cc1cc(N)c(S(N)(=O)=O)c([N+](=O)[O-])c1, the T/C [6] was 100 % of control, the T/C [7] was 97 % of control and the T/C [8] was 94 % of control.

CN(C)/C=C(\C#N)C=O was tested, and the T/C (endpoint: mean survival time, dose: 18.75 mg/kg/injection, schedule: Q01DX009 (ip), vehicle: saline with Tween-80) was 95 % of control, the T/C (endpoint: mean survival time, dose: 37.5 mg/kg/injection, schedule: Q01DX009 (ip), vehicle: saline with Tween-80) was 101 % of control and the T/C (endpoint: mean survival time, dose: 75.0 mg/kg/injection, schedule: Q01DX009 (ip), vehicle: saline with Tween-80) was 101 % of control. For the same compound, the T/C (endpoint: mean survival time, dose: 75.0 mg/kg/injection, schedule: Q04DX003 (ip), vehicle: saline with Tween-80) was 87 % of control.

With CCOC(=O)Nc1ccc2c(c1)Cc1cc(N=Cc3ccc4c(c3)OCO4)ccc1-2 the T/C (endpoint: mean survival time, dose: 100.0 mg/kg/injection, schedule: Q01DX001 (ip), vehicle: carboxymethylcellulose (CMC)) was 105 % of control, the T/C (endpoint: mean survival time, dose: 200.0 mg/kg/injection, schedule: Q01DX001 (ip), vehicle: carboxymethylcellulose (CMC)) was 100 % of control and the T/C (endpoint: mean survival time, dose: 400.0 mg/kg/injection, schedule: Q01DX001 (ip), vehicle: carboxymethylcellulose (CMC)) was 97 % of control.

For CC(C)(C)C1=CC(=CN(O)C(C)(C)C)C=C(C(C)(C)C)C1=O, the T/C [6] was 100 % of control, the T/C [7] was 103 % of control and the T/C [8] was 100 % of control.

COc1ccc(CNCCCCCCNCc2ccc(OC)cc2)cc1 was tested, and the T/C [9] was 100 % of control, the T/C [4] was 95 % of control and the T/C [1] was 101 % of control. The T/C [2] was 87 % of control.

In the case of C#CC(C)(C)OCC(CCl)OC(N)=O (centres undefined), the T/C [10] is reported as 97 % of control, the T/C [9] is reported as 97 % of control and the T/C [4] is reported as 100 % of control. For the same compound, the T/C [5] was 102 % of control.

For N#CCc1ccc(Cl)c(Cl)c1, the T/C [10] was 102 % of control, the T/C (endpoint: mean survival time, dose: 25.0 mg/kg/injection, schedule: Q04DX003 (ip), vehicle: saline with Tween-80) was 111 % of control and the T/C [9] was 100 % of control. For the same compound, the T/C [11] was 94 % of control and the T/C [1] was 102 % of control.

With CCCCCCOS(=O)OCC(Cl)COC (centres undefined) the T/C [4] was 97 % of control and the T/C [5] was 94 % of control.

For CCCCCCCCCCCCOc1c(Cl)cc(Cl)cc1Cl, the T/C (endpoint: mean survival time, dose: 100.0 mg/kg/injection, schedule: Q04DX002 (ip), vehicle: saline with Tween-80) was 101 % of control, the T/C (endpoint: mean survival time, dose: 200.0 mg/kg/injection, schedule: Q04DX002 (ip), vehicle: saline with Tween-80) was 101 % of control and the T/C (endpoint: mean survival time, dose: 400.0 mg/kg/injection, schedule: Q04DX002 (ip), vehicle: saline with Tween-80) was 104 % of control.

O=Cc1cc(Cl)cc(Cl)c1O.O=Cc1cc(Cl)cc(Cl)c1O.[Co] was tested, and the T/C [11] was 90 % of control, the T/C (endpoint: mean survival time, dose: 50.0 mg/kg/injection, schedule: Q04DX003 (ip), vehicle: saline) was 100 % of control and the T/C [1] was 89 % of control. The T/C (endpoint: mean survival time, dose: 100.0 mg/kg/injection, schedule: Q04DX003 (ip), vehicle: saline) was 96 % of control, the T/C [2] was 94 % of control and the T/C (endpoint: mean survival time, dose: 200.0 mg/kg/injection, schedule: Q04DX003 (ip), vehicle: saline) was 100 % of control. For the same compound, the T/C [3] was 103 % of control and the T/C (endpoint: mean survival time, dose: 400.0 mg/kg/injection, schedule: Q04DX003 (ip), vehicle: saline) was 96 % of control.

For Cc1nc2ccccc2n1C, the T/C [10] was 105 % of control, the T/C [9] was 96 % of control and the T/C [4] was 104 % of control.

In the case of NC1CCCCC1N.O=S(=O)([O-])CCCNC1CCCCC1.O=S(=O)([O-])CCCNC1CCCCC1.[Pt+4], the T/C (endpoint: median survival time, dose: 0.78 mg/kg/injection, schedule: Q04DX003 (ip), vehicle: saline) is reported as 168 % of control, the T/C (endpoint: median survival time, dose: 1.56 mg/kg/injection, schedule: Q04DX003 (ip), vehicle: saline) is reported as 256 % of control and the T/C (endpoint: median survival time, dose: 3.12 mg/kg/injection, schedule: Q04DX003 (ip), vehicle: saline) is reported as 361 % of control and 365 % of control. The T/C (endpoint: median survival time, dose: 6.25 mg/kg/injection, schedule: Q04DX003 (ip), vehicle: saline) was 169 % of control and 240 % of control.

With CC1CC2(C)C(CC1=O)CC(C)C1C2CCC2(C)C1CCC2(C)O (centres undefined) the T/C [1] was 102 % of control, the T/C [2] was 102 % of control and the T/C [3] was 100 % of control.

For O=c1[nH]c(=O)n(CCCCOc2ccccc2)cc1-c1ccccc1, the T/C [6] was 98 % of control, the T/C [7] was 101 % of control and the T/C [8] was 96 % of control.
